Consider 20 compounds from patent US9266835B2, “Quinoline derivatives useful as CB-1 inverse agonists” (JANSSEN PHARMACEUTICA NV, priority 2014, dated 2016).

A value given as a limit tells only on which side of the number the result lay.

Assay [1] deals with Human CB1R (Cannabinoid receptor 1) (Homo sapiens (Human), UniProt P21554). Briefly: CB-1 in vitro cAMP assay (HTRF), inverse agonism. In kind it is cell-based. To be noted: mean where tested more than once. The text has this: (§1) CB1 and CB2 receptors are Gi-coupled GPCR. Activation of CB1 and CB2 receptors results in a decrease in cAMP production. An inverse agonist of the CB1 or CB2 receptor results in the opposite effect, an increase of cAMP production. The principle of this assay is based on HTRF® technology (Homogeneous Time-Resolved Fluorescence). The method is a competitive immunoassay between native cAMP produced by cells and the cAMP labeled with the fluorophore d2. The tracer binding is quantified by a Mab anti-cAMP labeled with Eu3+TBP-NHS Cryptate (supplied as part of the assay kit). The specific signal (i.e. energy transfer) is inversely proportional to the concentration of cAMP in the standard or sample.
Human CB1R (Cannabinoid receptor 1), sequence (P21554 whole entry): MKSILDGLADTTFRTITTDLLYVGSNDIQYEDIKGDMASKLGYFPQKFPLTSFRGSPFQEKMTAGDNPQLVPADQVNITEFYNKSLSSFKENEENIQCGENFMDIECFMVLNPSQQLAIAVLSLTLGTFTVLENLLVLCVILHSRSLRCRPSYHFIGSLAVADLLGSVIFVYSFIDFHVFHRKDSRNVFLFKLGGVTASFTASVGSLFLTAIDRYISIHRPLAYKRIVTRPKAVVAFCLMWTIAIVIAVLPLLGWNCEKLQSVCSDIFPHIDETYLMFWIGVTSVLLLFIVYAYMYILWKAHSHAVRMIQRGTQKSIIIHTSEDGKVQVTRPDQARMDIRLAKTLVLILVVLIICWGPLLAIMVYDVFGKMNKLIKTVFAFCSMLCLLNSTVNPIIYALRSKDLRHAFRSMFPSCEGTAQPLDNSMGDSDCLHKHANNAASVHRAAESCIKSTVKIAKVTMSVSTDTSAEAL
(§2) Human CB1R (Cannabinoid receptor 1) was stably transfected in HEK-293 cells (DiscoveRx, cat: 93-0200C1). Human CB2R (Cannabinoid receptor 2) was stably transfected in HEK-293 cells (DiscoveRx, cat: 93-0201C1). Cell cultures were maintained in media: DMEM (Invitrogen Cat#12430-054) supplemented with 10% HI FBS (Invitrogen Cat#16140-071), 1% L-glutamine (Invitrogen Cat#25030-081), 0.2 mg/ml Hygromycin B (Invitrogen Cat#10687-010), 600 μg/mL G418 (Invitrogen Cat#10131-035), and 1X Penn/Strep (Invitrogen 15140-122). After cell expansion, aliquots were cryo-stored in media containing 5% DMSO (Pierce Cat#20684).
(§3) One day prior to experiments media was warmed to 37° C. and the cryo-stored cells were thawed in a 37° C. water bath. The cells were then added to media (10× volume) and the mixture was centrifuged at 1000 RPM for 5 min. The supernate was removed and the cells were re-suspended in media. A sample of the cell suspension was evaluated on a Cedex XS automated cell counter (Innovatis Systems) to determine viable cells/ml. Additional media was added to the cells to achieve a final cell density of 4E5 cells/mL. The cells were then plated into 384 well PDL white solid bottom plates (Greiner, Cat#781945) at 20 μL per well using a Multidrop (Thermo Scientific). Cells were removed from Row P (location of cAMP standards). Two columns of cells were plated into a clear bottom 384 well PDL coated plate (Greiner, Cat#781944) to view confluence the day of the assay. The cell plates were lidded and stored for 15 minutes in a hood, then transferred to an incubator (37° C., 5% CO2, 95% humidity) overnight.
(§4) DMSO was added to all wells of 384 well V bottom polystyrene plate (Greiner, Cat#781280) except to columns 1 and 13, rows 0 and P and wells M13-M23 and N13-N23. Test compounds (60 μL, 10 mM) were added to Column 1 and 13 (A1 through N1 and A13 through L13). Test compounds were serially diluted 1/3 by transferring and mixing 20 μl sample with 40 μL DMSO.
(§5) DMSO (40 μL) was added to wells of 384 well V bottom polystyrene plate: O2 through O11, M14 through M23, N14 through N23, and O14 through O23. AM630 (also known as [6-iodo-2-methyl-1-[2-(4-morpholinyl)ethyl]-1H-indol-3-yl](4-methoxyphenyl)-methanone, Cayman Chemical, Cat#10006974) (60 μL, 10 mM) was added to 01; and 1-(2,4-dichlorophenyl)-7-[(4-fluorophenyl)methylene]-4,5,6,7-tetrahydro-N-1-piperidinyl-1H-indazole-3-carboxamide (60 μL, 10 mM) was added to N13. The control was serially diluted 1/3 by transferring and mixing 20 μl sample with 40 μL DMSO. This process resulted 11 doses per control, 10 mM to […].
(§6) Cells plated the day prior to the assay in clear bottom plates were viewed on an inverse microscope to ensure confluency in the range of 60-75%. […]

Assay [2] deals with Human CB2R (Cannabinoid receptor 2) (Homo sapiens (Human), UniProt P34972). Briefly: CB-2 in vitro cAMP assay (HTRF), inverse agonism. In kind it is cell-based. The following applies: mean where tested more than once.
Human CB2R (Cannabinoid receptor 2), sequence (P34972 whole entry): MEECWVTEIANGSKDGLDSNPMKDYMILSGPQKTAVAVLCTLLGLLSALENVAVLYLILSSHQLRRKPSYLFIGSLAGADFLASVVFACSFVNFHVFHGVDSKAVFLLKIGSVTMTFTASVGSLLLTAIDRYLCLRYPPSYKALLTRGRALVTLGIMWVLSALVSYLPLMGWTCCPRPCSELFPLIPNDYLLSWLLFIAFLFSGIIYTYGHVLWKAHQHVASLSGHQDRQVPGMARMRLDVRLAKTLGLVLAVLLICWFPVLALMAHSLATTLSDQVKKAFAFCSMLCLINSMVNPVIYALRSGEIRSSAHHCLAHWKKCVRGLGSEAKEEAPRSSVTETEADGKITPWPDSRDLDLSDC
From the text: as §1, §2, §3, §4, §5, §6

As to `O=c1cc(NC2CCN(S(=O)(=O)C(F)(F)F)CC2)c2cc(C(c3ccc(Cl)cc3)c3nc4ccccc4s3)ccc2[nH]1` (stereo not shown) [Compound 65, 6-[1,3-Benzothiazol-2-yl(4-chlorophenyl)methyl]-4-({1-[(trifluoromethyl)sulfonyl]-piperidin-4-yl}amino)quinolin-2(1H)-one], the concentration giving a half-maximal response (EC50) in assay [1] was 64 nM; in assay [2], 4300 nM.

For `O=c1cc(NC2CCN(S(=O)(=O)C3CC3)CC2)c2cc(C(c3ccc(Cl)cc3)c3ccc(Cl)cc3)ccc2[nH]1` [Compound 67, 6-[Bis(4-chlorophenyl)methyl]-4-{[1-(cyclopropylsulfonyl)piperidin-4-yl]amino}quinolin-2(1H)-one], the EC50 in assay [1] is 15 nM; in assay [2], over 10000 nM.

Consider `O=c1cc(NC2CCN(c3ccccn3)CC2)c2cc(C(c3ccc(Cl)cc3)c3ccc(Cl)cc3)ccc2[nH]1` [Compound 68, 6-[Bis(4-chlorophenyl)methyl]-4-[(1-pyridin-2-ylpiperidin-4-yl)amino]quinolin-2(1H)-one], for which the EC50 in assay [1] is 6 nM; in assay [2], over 10000 nM.

In the case of `O=C(CC(F)(F)F)N1CCC(Nc2cc(=O)[nH]c3ccc(C(c4ccc(Cl)cc4)c4ccc(Cl)cc4)cc23)CC1` [Compound 69, 6-[Bis(4-chlorophenyl)methyl]-4-{[1-(3,3,3-trifluoropropanoyl)piperidin-4-yl]amino}quinolin-2(1H)-one], the concentration for a half-maximal effect (EC50) in assay [1] amounted to 10 nM; in assay [2] it was 4200 nM.

With `O=c1cc(NC2CCN(S(=O)(=O)C(F)(F)F)CC2)c2cc(C(O)(c3ccc(Cl)cc3)c3ccc(Cl)cc3)ccc2[nH]1` [Compound 73, 6-[Bis(4-chlorophenyl)(hydroxy)methyl]-4-({1-[(trifluoromethyl)sulfonyl]-piperidin-4-yl}amino)quinolin-(1H)-one], the EC50 in assay [1] is 52 nM; in assay [2], 5400 nM.

Regarding `CC(Nc1cc(=O)[nH]c2ccc(C(c3ccc(Cl)cc3)c3ccc(Cl)cc3)cc12)c1cccc(C(F)(F)F)c1` (stereo not shown) [Compound 74, 6-[Bis(4-chlorophenyl)methyl]-4-({1-[3-(trifluoromethyl)phenyl]ethyl}amino)quinolin-2(1H)-one], the concentration for a half-maximal effect (EC50) was 36 nM in assay [1] and over 10000 nM in assay [2].

Take `O=c1cc(Nc2cccc(C(F)(F)F)c2)c2cc(C(c3ccc(Cl)cc3)c3ccc(Cl)cc3)ccc2[nH]1` [Compound 75, 6-[Bis(4-chlorophenyl)methyl]-4-{[3-(trifluoromethyl)phenyl]amino}-quinolin-2(1H)-one]: the EC50 in assay [1] is 25 nM; in assay [2], over 10000 nM.

With `O=c1cc(NCc2ccc(C(F)(F)F)cn2)c2cc(C(c3ccc(Cl)cc3)c3ccc(Cl)cc3)ccc2[nH]1` [Compound 78, 6-[Bis(4-chlorophenyl)methyl]-4-({[5-(trifluoromethyl)pyridin-2-yl]methyl}amino)quinolin-2(1H)-one], the 50% effective concentration (EC50) was 168 nM in assay [1] and over 10000 nM in assay [2].

As for `O=c1cc(NCc2cncc(C(F)(F)F)c2)c2cc(C(c3ccc(Cl)cc3)c3ccc(Cl)cc3)ccc2[nH]1` [Compound 79, 6-[Bis(4-chlorophenyl)methyl]-4-({[5-(trifluoromethyl)pyridin-3-yl]methyl}amino)quinolin-2(1H)-one], the concentration for a half-maximal effect (EC50) in assay [1] amounted to 54 nM; in assay [2], 6750 nM.

Consider `O=c1cc(NC2CCN(S(=O)(=O)c3ccccc3)CC2)c2cc(C(c3ccc(Cl)cc3)c3ccc(Cl)cc3)ccc2[nH]1` [Compound 80, 6-[Bis(4-chlorophenyl)methyl]-4-{[1-(phenylsulfonyl)piperidin-4-yl]amino}quinolin-2(1H)-one], for which the values for the 50% effective concentration (EC50) in assay [1] and in assay [2] were 14 nM and over 10000 nM, respectively.

`O=c1cc(NC2CCN(S(=O)(=O)N3CCCC3)CC2)c2cc(C(c3ccc(Cl)cc3)c3ccc(Cl)cc3)ccc2[nH]1` [Compound 81, 6-(bis(4-chlorophenyl)methyl)-4-((1-(pyrrolidin-1-ylsulfonyl)piperidin-4-yl)amino)quinolin-2(1H)-one]: the figures for the half-maximal effective concentration (EC50) in assay [1] and in assay [2] were 15 nM and over 10000 nM, respectively.

Turning to `O=c1cc(NC2CCN(S(=O)(=O)c3cccc(F)c3)CC2)c2cc(C(c3ccc(Cl)cc3)c3ccc(Cl)cc3)ccc2[nH]1` [Compound 82, 6-[Bis(4-chlorophenyl)methyl]-4-({1-[(3-fluorophenyl)sulfonyl]-piperidin-4-yl}amino)quinolin-2(1H)-one], the figures for the EC50 in assay [1] and in assay [2] were 63 nM and 3200 nM, respectively.

Consider `O=c1cc(Nc2ccc(Cl)c(F)c2)c2cc(C(c3ccc(Cl)cc3)c3ccc(Cl)cc3)ccc2[nH]1` [Compound 83, 6-[Bis(4-chlorophenyl)methyl]-4-[(4-chloro-3-fluorophenyl)amino]quinolin-2(1H)-one], for which the EC50 in assay [1] is 11 nM; in assay [2], over 10000 nM.

Consider `O=C(O)c1cccc(S(=O)(=O)N2CCC(Nc3cc(=O)[nH]c4ccc(C(c5ccc(Cl)cc5)c5ccc(Cl)cc5)cc34)CC2)c1` [Compound 84, 3-{[4-({6-[Bis(4-chlorophenyl)methyl]-2-oxo-1,2-dihydroquinolin-4-yl}amino)piperidin-1-yl]sulfonyl}benzoic acid], for which the figures for the EC50 in assay [1] and in assay [2] were 269 nM and 8960 nM, respectively.

Turning to `COC(=O)c1ccc(Nc2cc(=O)[nH]c3ccc(C(c4ccc(Cl)cc4)c4ccc(Cl)cc4)cc23)cc1` [Compound 85, Methyl 4-({6-[bis(4-chlorophenyl)methyl]-2-oxo-1,2-dihydroquinolin-4-yl}amino)benzoate], the EC50 is 70 nM in assay [1] and over 10000 nM in assay [2].

As to `O=C(O)c1ccc(Nc2cc(=O)[nH]c3ccc(C(c4ccc(Cl)cc4)c4ccc(Cl)cc4)cc23)cc1` [Compound 86, 4-({6-[Bis(4-chlorophenyl)methyl]-2-oxo-1,2-dihydroquinolin-4-yl}amino)benzoic acid], the concentration for a half-maximal effect (EC50) in assay [1] and in assay [2] was over 10000 nM each time.

For the compound `NC(=O)c1ccc(Nc2cc(=O)[nH]c3ccc(C(c4ccc(Cl)cc4)c4ccc(Cl)cc4)cc23)cc1` [Compound 87, 4-({6-[Bis(4-chlorophenyl)methyl]-2-oxo-1,2-dihydroquinolin-4-yl}amino)benzamide], the EC50 is 3150 nM in assay [1] and over 10000 nM in assay [2].

With `O=c1cc(NC2CCC(C(F)(F)F)CC2)c2cc(C(c3ccc(Cl)cc3)c3ccc(Cl)cc3)ccc2[nH]1` (stereo not shown) [Compound 88, 6-[Bis(4-chlorophenyl)methyl]-4-{[4-(trifluoromethyl)cyclohexyl]-amino}quinolin-2(1H)-one], the 50% effective concentration (EC50) in assay [1] is 111 nM; in assay [2] it was 3700 nM.

As to `Cn1c(=O)cc(NC2CCN(S(=O)(=O)C(F)(F)F)CC2)c2cc(C(c3ccc(Cl)cc3)c3nccs3)ccc21` (stereo not shown) [Compound 89, 6-[(4-chlorophenyl)(1,3-thiazol-2-yl)methyl]-1-methyl-4-[[1-(trifluoromethane)sulfonylpiperidin-4-yl]amino]-1,2-dihydroquinolin-2-one], the EC50 in assay [1] is 14 nM; in assay [2] it was 9900 nM.

Consider `NC(=O)Cn1c(=O)cc(NC2CCN(S(=O)(=O)C(F)(F)F)CC2)c2cc(C(c3ccc(Cl)cc3)c3ccc(Cl)cc3)ccc21` [Compound 90, 2-(6-(bis(4-chlorophenyl)methyl)-2-oxo-4-((1-((trifluoromethyl)sulfonyl)piperidin-4-yl)amino)quinolin-1(2H)-yl)acetamide], for which the figures for the half-maximal effective concentration (EC50) in assay [1] and in assay [2] were 967 nM and over 10000 nM, respectively.
